Test results from patent publication US20050130890A1, “Amyloid beta is a ligand for FPR class receptors” (priority 2001, published 2005).

How the values were obtained:
[1] = test system: N9 murine microglial cell line; experiment: Chemotaxis of N9 microglial cells; format: cell-based, mouse; settings: LPS-activated N9 cells; PTX 100 ng/ml, 37° C., 30 min
human monocytes [2] = experiment: Chemotaxis (migration) of human monocytes, 48-well chamber; format: cell-based; settings: PT 100 ng/ml, 37° C., 30 min
Source text: (§1) Reagents and cells. Aβ peptide (Aβ42) and the peptide with reversed sequence (Aβ42-1) were purchased from California Peptide Research (Napa, Calif.). All peptides were examined for endotoxin contamination and were negative at highest concentrations used in the study. Human peripheral blood monocytes were isolated from buffy coats (National Institutes of Health Clinical Center, Bethesda, Md.) enriched for mononuclear cells by using iso-osmotic Percoll gradient. The purity of the cell preparations was examined by morphology and was >90%. Rat basophilic leukemia cell line (RBL-2H3) transfected with epitope-tagged N-formylpeptide receptor (FPR) (designated ETFR) was a kind gift of Dr. R. Snyderman (Duke University, Durham, N.C.). cDNA cloning and establishment of FPRL1-transfected human embryonic kidney (HEK) 293 cells (FPRL1/293) were described previously (Gao J. L. & Murphy P. M. 1993 J Biol Chem 268:[…]). All the transfected cells were maintained in culture media as described (Su S. B. et al. 1999 J Exp Med 189:395-402).
(§2) Chemotaxis assays and measurement of calcium mobilization. Chemotaxis assays were performed using 48-well chemotaxis chambers (Deng X. et al. 1999 Blood 94:1165-1673). The results were expressed as the mean number (±SD) of migrated cells in three high-powered fields in three replicate samples. Chemotaxis index, which represented the fold increase in the number of cells migrated in response to chemoattractants over the cell response to control medium, also was used. Ca^+ mobilization was measured by stimulating fura-2 AM-loaded human monocytes or receptor-transfected cells with various agents (Deng X. et al. 1999 Blood 94:1165-1673; Su S. B. et al. 1999 J Exp Med 189:395-402) and recording the ratio of fluorescence at 340 and 380 nm in a luminescence spectrometer with FL WinLab program (Perkin-Elmer, Beaconsfield, UK).

human monocytes [3] = experiment: Ca2+ mobilization in fura-2 loaded human monocytes; format: cell-based; settings: PT-treated cells, 20 μM Aβ42
Source text: as §1, §2

pertussis toxin
effect of pretreatment on chemotaxis to Aβ [1]: completely blocked | effect of preincubation on monocyte migration in response to Aβ42 (human monocytes [2]): completely abolished | effect of preincubation on monocyte calcium flux in response to Aβ42 (human monocytes [3]): completely abolished
